Molecules are shown by their SMILES. Read-outs that look alike come from different tables or passages of the source.

Data set [1] has as its target T1, P-gp (Homo sapiens, UniProt P08183).
The test system of data set [2] is P-gp. The note with it: cited from earlier work.
Data set [3] deals with T1, P-gp. Kind of data set: in vitro.
The subject of the next data set is KB CH^R 8-5 cells. In kind it is cell-based.
In the next data set the test system is KB 3-1 cells. Description: MTT cytotoxicity of paclitaxel with or without reversal agent, parental cells. In kind it is cell-based.

T1 sequence (P08183 whole entry): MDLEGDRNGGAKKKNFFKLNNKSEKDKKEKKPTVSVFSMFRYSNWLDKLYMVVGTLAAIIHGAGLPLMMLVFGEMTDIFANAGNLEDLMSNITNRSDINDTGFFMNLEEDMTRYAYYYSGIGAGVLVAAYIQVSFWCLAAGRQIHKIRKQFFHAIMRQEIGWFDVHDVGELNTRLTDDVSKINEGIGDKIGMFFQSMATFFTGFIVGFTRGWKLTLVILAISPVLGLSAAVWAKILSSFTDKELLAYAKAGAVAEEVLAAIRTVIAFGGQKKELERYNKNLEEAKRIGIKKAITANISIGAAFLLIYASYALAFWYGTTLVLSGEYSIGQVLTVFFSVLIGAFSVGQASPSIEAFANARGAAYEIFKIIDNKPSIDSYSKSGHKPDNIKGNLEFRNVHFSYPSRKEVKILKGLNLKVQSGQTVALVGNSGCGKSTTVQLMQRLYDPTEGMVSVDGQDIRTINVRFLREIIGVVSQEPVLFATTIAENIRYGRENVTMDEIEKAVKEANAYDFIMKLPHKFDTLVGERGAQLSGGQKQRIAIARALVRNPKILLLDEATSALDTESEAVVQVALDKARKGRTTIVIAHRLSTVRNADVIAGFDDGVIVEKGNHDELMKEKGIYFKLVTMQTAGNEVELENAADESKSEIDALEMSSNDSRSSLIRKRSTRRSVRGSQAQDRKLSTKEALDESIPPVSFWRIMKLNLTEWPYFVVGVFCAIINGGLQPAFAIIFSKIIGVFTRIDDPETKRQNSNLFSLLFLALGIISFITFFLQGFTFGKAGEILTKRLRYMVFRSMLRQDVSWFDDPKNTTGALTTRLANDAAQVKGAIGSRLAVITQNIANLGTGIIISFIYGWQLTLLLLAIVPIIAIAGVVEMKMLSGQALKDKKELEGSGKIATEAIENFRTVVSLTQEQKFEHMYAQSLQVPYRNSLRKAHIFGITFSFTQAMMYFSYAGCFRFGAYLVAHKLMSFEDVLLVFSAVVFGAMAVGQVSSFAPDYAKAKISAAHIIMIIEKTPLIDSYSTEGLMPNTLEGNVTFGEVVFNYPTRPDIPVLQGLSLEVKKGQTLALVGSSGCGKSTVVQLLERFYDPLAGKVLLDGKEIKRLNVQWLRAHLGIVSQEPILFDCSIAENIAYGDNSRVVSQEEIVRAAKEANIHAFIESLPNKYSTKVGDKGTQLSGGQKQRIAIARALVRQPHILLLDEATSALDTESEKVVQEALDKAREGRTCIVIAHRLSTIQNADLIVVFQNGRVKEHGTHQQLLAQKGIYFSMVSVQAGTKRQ

Regarding `COc1cc(-c2oc3cc(O)cc(O)c3c(=O)c2O)ccc1O` [Isorhamnetin], the “P-gp efflux inhibitory activity (in words)” value on P-gp [1] is recorded as “low inhibitory activity”. For the same compound, on P-gp [1] (human), the “Calcein-AM Efflux % inhibition” value is on record as 23.05%. Further, the IC50 with P-gp [2] is 340 nM. For the same compound, at P-gp [3], testing at 10 µM gave an inhibition of 19.5%.

As to `CC(=O)O[C@H]1C(=O)[C@@]2(C)[C@H]([C@H](OC(=O)c3ccccc3)[C@]3(O)C[C@H](OC(=O)[C@H](O)[C@@H](NC(=O)c4ccccc4)c4ccccc4)C(C)=C1C3(C)C)[C@]1(OC(C)=O)CO[C@@H]1C[C@@H]2O` [Paclitaxel], the “FR (fold-resistance)” value with KB CH^R 8-5 cells (KB Ch^R 8-5, paclitaxel alone, vs KB 3-1) was “[50.0]”; in the data set with KB 3-1 cells (KB 3-1, paclitaxel alone), “[1.0]”. The half-maximal inhibitory concentration (IC50) in the data set on KB CH^R 8-5 cells (read-out: IC50 ± SEM of paclitaxel) was 2000 ± 200 nM; in the data set on KB 3-1 cells (Homo sapiens, KB 3-1, read-out: IC50 ± SEM of paclitaxel) it was 40 ± 10 nM; in the data set with P-gp [2] (read-out: Actual IC50 (Literature) (A), ref Literature (source not given)), 1200 nM.

As usually defined, the IC50 is the concentration that inhibits the measured activity by half. As a reminder, the inhibition is the relative decrease from the control value, in per cent.

The record behind these values is paper PMC4955727 (Molecular bioSystems, 2016).
